Laboratory results reported in the kinase profiling compilation of Christmann-Franck et al. (2016).
Several values for one entry are separate records, joined by “and”; a condition that tells them apart may be missing. Equal values may be shown once.

How the values were obtained:
Assay in all cases: radiometric filter-binding kinase assay, Kinase HotSpot
Settings in all cases: compound 0.5 µM; ATP 10 µM
ZAP70 (human) = ZAP70 (human) (UniProt P43403)
PDPK1 (human) = PDPK1 (human) (UniProt O15530)
TLK2 (human) = TLK2 (human) (UniProt Q86UE8)
PIM1 (human) = PIM1 (human) (UniProt P11309)
Chain of PIM1 (human) (P11309 whole entry, looked up): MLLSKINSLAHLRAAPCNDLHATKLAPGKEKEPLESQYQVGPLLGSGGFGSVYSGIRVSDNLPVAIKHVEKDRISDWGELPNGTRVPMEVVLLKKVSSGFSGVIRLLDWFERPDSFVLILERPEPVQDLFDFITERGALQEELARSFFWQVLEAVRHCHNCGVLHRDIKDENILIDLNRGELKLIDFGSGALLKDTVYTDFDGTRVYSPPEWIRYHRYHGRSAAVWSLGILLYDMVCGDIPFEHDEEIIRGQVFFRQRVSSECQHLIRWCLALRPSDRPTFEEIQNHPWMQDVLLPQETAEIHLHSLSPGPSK

FER (human) = FER (human) (UniProt P16591)
PAK2 (human) = PAK2 (human) (UniProt Q13177)
MAPK9 (human) = MAPK9 (human) (UniProt P45984)
FLT1 (human) = FLT1 (human) (UniProt P17948)
JAK2 JH1 JH2 (human) = JAK2 JH1 JH2 (human) (UniProt O60674)
Chain of JAK2 JH1 JH2 (human) (O60674 whole entry, looked up): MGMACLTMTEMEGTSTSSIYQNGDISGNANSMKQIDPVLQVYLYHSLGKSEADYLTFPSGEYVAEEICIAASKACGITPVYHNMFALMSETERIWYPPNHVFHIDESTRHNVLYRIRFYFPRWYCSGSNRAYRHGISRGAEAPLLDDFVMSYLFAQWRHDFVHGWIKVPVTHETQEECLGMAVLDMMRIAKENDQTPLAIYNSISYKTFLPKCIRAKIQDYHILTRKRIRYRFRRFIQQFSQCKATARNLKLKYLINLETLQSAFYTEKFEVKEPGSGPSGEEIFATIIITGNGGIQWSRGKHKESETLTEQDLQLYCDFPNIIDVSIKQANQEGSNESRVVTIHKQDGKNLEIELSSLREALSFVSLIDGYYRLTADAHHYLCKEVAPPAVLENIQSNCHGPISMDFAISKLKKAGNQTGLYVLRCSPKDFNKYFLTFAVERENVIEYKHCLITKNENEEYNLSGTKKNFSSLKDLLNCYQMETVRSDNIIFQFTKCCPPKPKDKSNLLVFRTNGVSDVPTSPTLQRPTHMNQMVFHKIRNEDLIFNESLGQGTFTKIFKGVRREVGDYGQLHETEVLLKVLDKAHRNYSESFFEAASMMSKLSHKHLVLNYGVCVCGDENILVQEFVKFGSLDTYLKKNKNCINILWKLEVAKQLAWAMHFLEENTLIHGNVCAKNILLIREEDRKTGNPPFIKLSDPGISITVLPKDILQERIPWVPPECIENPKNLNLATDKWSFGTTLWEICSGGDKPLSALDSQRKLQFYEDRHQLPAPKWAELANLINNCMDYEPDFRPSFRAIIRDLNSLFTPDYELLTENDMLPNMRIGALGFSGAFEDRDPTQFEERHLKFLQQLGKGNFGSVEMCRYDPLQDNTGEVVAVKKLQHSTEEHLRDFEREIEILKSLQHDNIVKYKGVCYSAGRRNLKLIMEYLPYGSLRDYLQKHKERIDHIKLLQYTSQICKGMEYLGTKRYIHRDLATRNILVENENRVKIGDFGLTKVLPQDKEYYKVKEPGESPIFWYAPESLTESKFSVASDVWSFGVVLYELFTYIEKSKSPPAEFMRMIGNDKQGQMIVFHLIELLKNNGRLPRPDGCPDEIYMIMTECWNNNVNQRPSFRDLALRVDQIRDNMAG

DMPK (human) = DMPK (human) (UniProt Q09013)
IRAK4 (human) = IRAK4 (human) (UniProt Q9NWZ3)
PASK (human) = PASK (human) (UniProt Q96RG2)
PLK3 (human) = PLK3 (human) (UniProt Q9H4B4)
CAMK2B (human) = CAMK2B (human) (UniProt Q13554)
PAK1 (human) = PAK1 (human) (UniProt Q13153)
DAPK1 (human) = DAPK1 (human) (UniProt P53355)
GRK6 (human) = GRK6 (human) (UniProt P43250)
CDK4 CCND1 (human) = CDK4 CCND1 (human) (UniProt P24385+P11802)
BLK (human) = BLK (human) (UniProt P51451)
DCLK2 (human) = DCLK2 (human) (UniProt Q8N568)
TBK1 (human) = TBK1 (human) (UniProt Q9UHD2)
PRKD3 (human) = PRKD3 (human) (UniProt O94806)
ROS1 (human) = ROS1 (human) (UniProt P08922)
MAPK14 (human) = MAPK14 (human) (UniProt Q16539)
RPS6KA1 KD1 KD2 (human) = RPS6KA1 KD1 KD2 (human) (UniProt Q15418)
CDK1 CCNA2 (human) = CDK1 CCNA2 (human) (UniProt P06493+P20248)
PDGFRA (human) = PDGFRA (human) (UniProt P16234)
TNK2 (human) = TNK2 (human) (UniProt Q07912)
Chain of TNK2 (human) (Q07912 whole entry, looked up): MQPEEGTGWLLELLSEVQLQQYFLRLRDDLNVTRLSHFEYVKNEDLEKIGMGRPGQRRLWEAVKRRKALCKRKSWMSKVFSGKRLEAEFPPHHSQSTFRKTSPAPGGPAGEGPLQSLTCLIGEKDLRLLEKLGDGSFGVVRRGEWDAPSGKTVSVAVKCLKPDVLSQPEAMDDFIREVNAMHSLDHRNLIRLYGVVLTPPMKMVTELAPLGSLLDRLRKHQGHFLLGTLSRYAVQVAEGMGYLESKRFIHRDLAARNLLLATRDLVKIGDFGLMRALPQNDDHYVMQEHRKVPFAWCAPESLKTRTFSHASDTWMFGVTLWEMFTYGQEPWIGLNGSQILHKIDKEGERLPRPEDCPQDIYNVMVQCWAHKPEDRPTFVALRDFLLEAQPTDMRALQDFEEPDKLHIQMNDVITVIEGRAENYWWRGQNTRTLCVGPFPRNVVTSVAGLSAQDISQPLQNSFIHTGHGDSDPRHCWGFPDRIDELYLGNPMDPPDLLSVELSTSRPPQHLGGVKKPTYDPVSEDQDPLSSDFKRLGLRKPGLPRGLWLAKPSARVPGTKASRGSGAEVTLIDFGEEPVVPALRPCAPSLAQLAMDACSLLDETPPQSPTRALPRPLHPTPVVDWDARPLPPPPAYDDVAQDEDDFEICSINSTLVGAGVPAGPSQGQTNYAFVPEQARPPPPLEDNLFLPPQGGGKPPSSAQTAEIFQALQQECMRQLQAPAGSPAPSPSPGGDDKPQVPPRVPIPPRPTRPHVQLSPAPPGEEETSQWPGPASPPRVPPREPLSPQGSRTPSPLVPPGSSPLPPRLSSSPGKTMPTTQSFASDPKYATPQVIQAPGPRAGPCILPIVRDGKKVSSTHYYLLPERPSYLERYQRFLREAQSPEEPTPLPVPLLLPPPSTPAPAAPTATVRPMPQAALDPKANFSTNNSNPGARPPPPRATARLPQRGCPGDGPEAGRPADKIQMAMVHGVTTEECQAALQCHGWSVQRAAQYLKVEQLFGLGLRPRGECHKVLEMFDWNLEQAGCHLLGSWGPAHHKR

CSNK1G1 (human) = CSNK1G1 (human) (UniProt Q9HCP0)
AKT1 (human) = AKT1 (human) (UniProt P31749)
Chain of AKT1 (human) (P31749 whole entry, looked up): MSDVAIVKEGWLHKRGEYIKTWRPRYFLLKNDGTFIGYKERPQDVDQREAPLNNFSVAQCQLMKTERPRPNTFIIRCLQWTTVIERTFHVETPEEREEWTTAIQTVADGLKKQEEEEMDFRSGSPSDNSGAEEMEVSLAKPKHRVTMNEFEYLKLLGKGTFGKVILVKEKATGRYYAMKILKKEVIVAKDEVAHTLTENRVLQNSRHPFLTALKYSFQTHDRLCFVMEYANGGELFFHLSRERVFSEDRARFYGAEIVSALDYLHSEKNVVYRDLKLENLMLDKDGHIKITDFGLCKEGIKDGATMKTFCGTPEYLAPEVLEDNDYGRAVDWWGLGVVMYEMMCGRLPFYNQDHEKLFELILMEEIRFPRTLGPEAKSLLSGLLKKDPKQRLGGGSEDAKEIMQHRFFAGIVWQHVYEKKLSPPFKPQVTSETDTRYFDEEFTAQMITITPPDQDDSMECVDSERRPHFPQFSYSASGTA

[1] = biological target: JAK1 JH1 catalytic (human) (UniProt P23458)
HCK (human) = HCK (human) (UniProt P08631)
Chain of HCK (human) (P08631 whole entry, looked up): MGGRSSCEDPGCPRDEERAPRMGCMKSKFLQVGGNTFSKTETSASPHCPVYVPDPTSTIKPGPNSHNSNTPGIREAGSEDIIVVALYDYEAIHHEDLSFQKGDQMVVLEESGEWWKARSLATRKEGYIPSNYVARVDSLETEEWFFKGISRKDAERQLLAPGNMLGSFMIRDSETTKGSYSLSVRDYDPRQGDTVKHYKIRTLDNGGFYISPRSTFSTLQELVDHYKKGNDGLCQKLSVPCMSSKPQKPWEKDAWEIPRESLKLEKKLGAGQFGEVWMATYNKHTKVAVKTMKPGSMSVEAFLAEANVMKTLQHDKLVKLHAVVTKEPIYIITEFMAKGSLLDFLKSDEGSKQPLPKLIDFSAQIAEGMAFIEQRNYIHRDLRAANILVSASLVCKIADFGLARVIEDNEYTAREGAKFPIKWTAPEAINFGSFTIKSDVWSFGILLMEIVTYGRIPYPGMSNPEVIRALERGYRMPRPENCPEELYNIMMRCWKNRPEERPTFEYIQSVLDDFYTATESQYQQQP

PRKCH (human) = PRKCH (human) (UniProt P24723)
MAPKAPK3 (human) = MAPKAPK3 (human) (UniProt Q16644)
TAOK1 (human) = TAOK1 (human) (UniProt Q7L7X3)
WEE1 (human) = WEE1 (human) (UniProt P30291)
CAMK4 (human) = CAMK4 (human) (UniProt Q16566)
RPS6KB2 (human) = RPS6KB2 (human) (UniProt Q9UBS0)
NEK9 (human) = NEK9 (human) (UniProt Q8TD19)
Chain of NEK9 (human) (Q8TD19 whole entry, looked up): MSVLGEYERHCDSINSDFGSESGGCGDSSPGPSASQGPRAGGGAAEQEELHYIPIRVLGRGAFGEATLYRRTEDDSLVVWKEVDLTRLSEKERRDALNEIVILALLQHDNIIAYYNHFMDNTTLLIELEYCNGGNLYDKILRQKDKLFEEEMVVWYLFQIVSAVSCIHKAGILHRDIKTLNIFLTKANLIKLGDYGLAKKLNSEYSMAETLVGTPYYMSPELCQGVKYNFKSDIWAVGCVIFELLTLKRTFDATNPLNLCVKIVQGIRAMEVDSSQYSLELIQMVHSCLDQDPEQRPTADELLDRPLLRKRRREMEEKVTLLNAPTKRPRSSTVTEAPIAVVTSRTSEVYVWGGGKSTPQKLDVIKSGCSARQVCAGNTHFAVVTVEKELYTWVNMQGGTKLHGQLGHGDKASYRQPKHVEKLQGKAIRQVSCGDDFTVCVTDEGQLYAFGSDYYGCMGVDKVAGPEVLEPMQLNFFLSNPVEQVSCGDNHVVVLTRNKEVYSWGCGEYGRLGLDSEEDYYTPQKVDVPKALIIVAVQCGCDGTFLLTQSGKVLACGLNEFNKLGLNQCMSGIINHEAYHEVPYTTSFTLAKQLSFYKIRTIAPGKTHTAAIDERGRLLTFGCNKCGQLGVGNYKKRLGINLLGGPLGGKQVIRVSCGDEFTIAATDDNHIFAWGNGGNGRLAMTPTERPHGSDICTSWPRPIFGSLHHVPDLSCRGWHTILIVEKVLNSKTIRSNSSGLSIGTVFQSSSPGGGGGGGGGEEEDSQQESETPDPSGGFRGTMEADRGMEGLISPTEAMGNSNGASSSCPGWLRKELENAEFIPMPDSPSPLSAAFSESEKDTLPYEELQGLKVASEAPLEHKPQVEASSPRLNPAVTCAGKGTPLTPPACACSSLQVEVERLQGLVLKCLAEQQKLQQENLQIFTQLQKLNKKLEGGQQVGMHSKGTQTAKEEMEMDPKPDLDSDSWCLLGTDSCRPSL

LCK (human) = LCK (human) (UniProt P06239)
SRPK1 (human) = SRPK1 (human) (UniProt Q96SB4)
LYN (human) = LYN (human) (UniProt P07948)
Chain of LYN (human) (P07948 whole entry, looked up): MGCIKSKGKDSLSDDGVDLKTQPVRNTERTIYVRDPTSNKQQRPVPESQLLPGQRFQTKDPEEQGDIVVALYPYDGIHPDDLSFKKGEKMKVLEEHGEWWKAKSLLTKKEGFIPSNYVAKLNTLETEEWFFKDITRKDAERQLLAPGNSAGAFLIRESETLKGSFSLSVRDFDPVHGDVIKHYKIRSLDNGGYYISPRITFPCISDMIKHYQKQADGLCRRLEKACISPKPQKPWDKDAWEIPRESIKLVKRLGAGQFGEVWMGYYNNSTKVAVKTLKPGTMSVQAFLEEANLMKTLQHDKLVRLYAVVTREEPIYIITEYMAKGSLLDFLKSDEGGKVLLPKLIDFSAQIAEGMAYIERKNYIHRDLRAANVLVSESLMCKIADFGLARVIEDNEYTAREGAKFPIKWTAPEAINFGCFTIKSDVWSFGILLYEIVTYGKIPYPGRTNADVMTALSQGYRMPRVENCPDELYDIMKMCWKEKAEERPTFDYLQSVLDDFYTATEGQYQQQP

CCCC(=O)Oc1ccc2[nH]c(C(=O)c3cc4ccccc4[nH]3)cc2c1
residual activity (ZAP70 (human)): 100%
residual activity (PDPK1 (human)): 101%
residual activity (TLK2 (human)): 97.1%
residual activity (PIM1 (human)): 100%
residual activity (FER (human)): 101%
residual activity (PAK2 (human)): 102%
residual activity (MAPK9 (human)): 76%
residual activity (FLT1 (human)): 89.7%
residual activity (JAK2 JH1 JH2 (human)): 106%
residual activity (DMPK (human)): 94.4%
residual activity (IRAK4 (human)): 82.7%
residual activity (PASK (human)): 88.7%
residual activity (PLK3 (human)): 98.4%
residual activity (CAMK2B (human)): 90%
residual activity (PAK1 (human)): 95.8%
residual activity (DAPK1 (human)): 85.8%
residual activity (GRK6 (human)): 95.8%
residual activity (CDK4 CCND1 (human)): 106%
residual activity (BLK (human)): 102%
residual activity (DCLK2 (human)): 89.2%
residual activity (TBK1 (human)): 119%
residual activity (PRKD3 (human)): 102%
residual activity (ROS1 (human)): 97%
residual activity (MAPK14 (human)): 102%
residual activity (RPS6KA1 KD1 KD2 (human)): 91.3%
residual activity (CDK1 CCNA2 (human)): 87.3%
residual activity (PDGFRA (human)): 96.6%
residual activity (TNK2 (human)): 77.7%
residual activity (CSNK1G1 (human)): 76.1%
residual activity (AKT1 (human)): 102%
residual activity [1]: 104%
residual activity (HCK (human)): 95.1%
residual activity (PRKCH (human)): 93.6%
residual activity (MAPKAPK3 (human)): 94.3%
residual activity (TAOK1 (human)): 82.8%
residual activity (WEE1 (human)): 85.8%
residual activity (CAMK4 (human)): 111%
residual activity (RPS6KB2 (human)): 102%
residual activity (NEK9 (human)): 110%
residual activity (LCK (human)): 94%
residual activity (SRPK1 (human)): 105%
residual activity (LYN (human)): 103% and 98.7%

CNc1cc2c(Nc3cccc(Br)c3)ncnc2cn1
residual activity (ZAP70 (human)): 99.1%
residual activity (PDPK1 (human)): 97.7%
residual activity (TLK2 (human)): 114%
residual activity (PIM1 (human)): 66.2%
residual activity (FER (human)): 97.1%
residual activity (PAK2 (human)): 92.7%
residual activity (MAPK9 (human)): 96.5%
residual activity (FLT1 (human)): 83.5%
residual activity (JAK2 JH1 JH2 (human)): 82.1%
residual activity (DMPK (human)): 112%
residual activity (IRAK4 (human)): 82.6%
residual activity (PASK (human)): 86.9%
residual activity (PLK3 (human)): 96.4%
residual activity (CAMK2B (human)): 95.8%
residual activity (PAK1 (human)): 94.9%
residual activity (DAPK1 (human)): 80.5%
residual activity (GRK6 (human)): 91.1%
residual activity (CDK4 CCND1 (human)): 104%
residual activity (BLK (human)): 103%
residual activity (DCLK2 (human)): 90.4%
residual activity (TBK1 (human)): 94.5%
residual activity (PRKD3 (human)): 78.5%
residual activity (ROS1 (human)): 89.1%
residual activity (MAPK14 (human)): 90%
residual activity (RPS6KA1 KD1 KD2 (human)): 90.9%
residual activity (CDK1 CCNA2 (human)): 86.5%
residual activity (PDGFRA (human)): 99%
residual activity (TNK2 (human)): 30.3%
residual activity (CSNK1G1 (human)): 81.7%
residual activity (AKT1 (human)): 98.8%
residual activity [1]: 79.9%
residual activity (HCK (human)): 84.5%
residual activity (PRKCH (human)): 95.7%
residual activity (MAPKAPK3 (human)): 99.2%
residual activity (TAOK1 (human)): 92.4%
residual activity (WEE1 (human)): 75.9%
residual activity (CAMK4 (human)): 104%
residual activity (RPS6KB2 (human)): 99.8%
residual activity (NEK9 (human)): 99.4%
residual activity (LCK (human)): 96.7%
residual activity (SRPK1 (human)): 90.7%
residual activity (LYN (human)): 63.9% and 81.9%
